Assay results from patent US10206937B2, “Boronic acid derivatives and therapeutic uses thereof” (Qpex Biopharma, Inc., priority 2014, dated 2019).

Tested on: strains of Enterobacteriaceae producing various carbapenemases (class A, D and B; 169 strains)
Assay: Meropenem or tebipenem potentiation by Compounds 97 or 62 (MIC)
Type: cell-based
Outline: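 Meropenem and tebipenem MICs measured alone or with Compound 97 or 62 held at a fixed 8 μg/ml in the growth medium. Panel of 169 clinical Enterobacteriaceae isolates expressing class A, D and B carbapenemases, alone or with other beta-lactamases.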

## C[C@@H](O)[C@H]1C(=O)N2C(C(=O)O)=C(S[C@@H]3CN[C@H](C(=O)N(C)C)C3)[C@H](C)[C@H]12 [M]
CF1022 Citrobacter freundii SHV-12(2be), TEM-OSBL(2b), IMP-8
  Meropenem MIC alone (M): Y (MIC of 1 μg/mL to 10 μg/mL)
CF1023 Citrobacter freundii SHV-12(2be), TEM-OSBL(2b), CTX-M-3, CMY-34, NDM-1
  Meropenem MIC alone (M): Z (MIC of greater than 10 μg/mL)
EC1061 Escherichia coli NDM-1, CMY-6
  Meropenem MIC alone (M): Z (MIC of greater than 10 μg/mL)
EC1069 Escherichia coli CTX-M-27, NDM-1
  Meropenem MIC alone (M): Z (MIC of greater than 10 μg/mL)
EC1070 Escherichia coli TEM-OSBL(2b), CMY-42, NDM-5
  Meropenem MIC alone (M): Z (MIC of greater than 10 μg/mL)
EC1072 Escherichia coli CTX-M-3, NDM-1
  Meropenem MIC alone (M): Z (MIC of greater than 10 μg/mL)
ECL1045 Enterobacter cloacae VIM-1
  Meropenem MIC alone (M): Z (MIC of greater than 10 μg/mL)
ECL1055 Enterobacter cloacae KPC-3, TEM
  Meropenem MIC alone (M): Y (MIC of 1 μg/mL to 10 μg/mL)
ECL1057 Enterobacter cloacae NDM-1, TEM-1, CTX-M-15
  Meropenem MIC alone (M): Z (MIC of greater than 10 μg/mL)
ECL1084 Enterobacter cloacae CTX-M-15, ACT-16, NDM-1
  Meropenem MIC alone (M): Z (MIC of greater than 10 μg/mL)
ECL1085 Enterobacter cloacae SHV-31(2be), TEM-1(2b), CTX-M-15, NDM-1
  Meropenem MIC alone (M): Z (MIC of greater than 10 μg/mL)
ECL1087 Enterobacter cloacae VIM-1
  Meropenem MIC alone (M): Z (MIC of greater than 10 μg/mL)
ECL1090 Enterobacter cloacae TEM-1(2b), CTX-M-22, ACT-type, IMP-8
  Meropenem MIC alone (M): Y (MIC of 1 μg/mL to 10 μg/mL)
ECL1092 Enterobacter cloacae TEM-OSBL(2b), ACT-32, VIM-1
  Meropenem MIC alone (M): Y (MIC of 1 μg/mL to 10 μg/mL)
ECL1093 Enterobacter cloacae TEM-OSBL(2b), ACT-32, VIM-1
  Meropenem MIC alone (M): Y (MIC of 1 μg/mL to 10 μg/mL)
ECL1094 Enterobacter cloacae VIM-1
  Meropenem MIC alone (M): Z (MIC of greater than 10 μg/mL)
ECL1095 Enterobacter cloacae SHV-12(2be), TEM-OSBL(2b), CMY-4, ACT-16, VIM-4, OXA-48(c)
  Meropenem MIC alone (M): Z (MIC of greater than 10 μg/mL)
ECL1096 Enterobacter cloacae CMY-4, VIM-4, OXA-48(c)
  Meropenem MIC alone (M): Z (MIC of greater than 10 μg/mL)
ECL1097 Enterobacter cloacae SHV-31(2be), TEM-OSBL(2b), CTX-M-15, ACT-31, NDM-1
  Meropenem MIC alone (M): Z (MIC of greater than 10 μg/mL)
ECL1098 Enterobacter cloacae TEM-OSBL(2b), DHA-1, ACT-16, NDM-1
  Meropenem MIC alone (M): Z (MIC of greater than 10 μg/mL)
KP1054 Klebsiella pneumoniae VIM-1, SHV-11
  Meropenem MIC alone (M): Y (MIC of 1 μg/mL to 10 μg/mL)
KP1059 Klebsiella pneumoniae VIM-1, SHV-11
  Meropenem MIC alone (M): Z (MIC of greater than 10 μg/mL)
KP1061 Klebsiella pneumoniae KPC-3, TEM-1, SHV-11
  Meropenem MIC alone (M): Z (MIC of greater than 10 μg/mL)
KP1064 Klebsiella pneumoniae KPC-2, TEM-1, SHV-11
  Meropenem MIC alone (M): Z (MIC of greater than 10 μg/mL)
KP1065 Klebsiella pneumoniae VIM-1, SHV-11
  Meropenem MIC alone (M): Y (MIC of 1 μg/mL to 10 μg/mL)
KP1070 Klebsiella pneumoniae KPC-2, SHV-11, TEM-1
  Meropenem MIC alone (M): Z (MIC of greater than 10 μg/mL)
KP1074 Klebsiella pneumoniae KPC-3, SHV-11, TEM
  Meropenem MIC alone (M): Z (MIC of greater than 10 μg/mL)
KP1081 Klebsiella pneumoniae NDM-1, TEM-1, SHV-11, CMY-6, CTX-M-15
  Meropenem MIC alone (M): Z (MIC of greater than 10 μg/mL)
KP1158 Klebsiella pneumoniae KPC-2, VIM-1
  Meropenem MIC alone (M): Z (MIC of greater than 10 μg/mL)
KP1159 Klebsiella pneumoniae SHV-1(2b), CTX-M-15, IMP-4
  Meropenem MIC alone (M): Z (MIC of greater than 10 μg/mL)
KP1160 Klebsiella pneumoniae SHV-28(2be), CTX-M-15, IMP-26
  Meropenem MIC alone (M): Z (MIC of greater than 10 μg/mL)
KP1161 Klebsiella pneumoniae NDM-1
  Meropenem MIC alone (M): Z (MIC of greater than 10 μg/mL)
KP1162 Klebsiella pneumoniae SHV-1(2b), CTX-M-15, IMP-4
  Meropenem MIC alone (M): Z (MIC of greater than 10 μg/mL)
KP1163 Klebsiella pneumoniae SHV-11(2b), MOX-1, KPC-2, VIM-1
  Meropenem MIC alone (M): Z (MIC of greater than 10 μg/mL)
KP1164 Klebsiella pneumoniae SHV-12(2be), VIM-1
  Meropenem MIC alone (M): Z (MIC of greater than 10 μg/mL)
KP1165 Klebsiella pneumoniae SHV-11(2b), CTX-M-15, VIM-27
  Meropenem MIC alone (M): Z (MIC of greater than 10 μg/mL)
KP1166 Klebsiella pneumoniae SHV-5(2be), VIM-26
  Meropenem MIC alone (M): Z (MIC of greater than 10 μg/mL)
KP1168 Klebsiella pneumoniae SHV-11(2b), CTX-M-15, VIM-27
  Meropenem MIC alone (M): Z (MIC of greater than 10 μg/mL)
KP1169 Klebsiella pneumoniae SHV-11(2b), VIM-1
  Meropenem MIC alone (M): Z (MIC of greater than 10 μg/mL)
KP1170 Klebsiella pneumoniae SHV-11(2b), CTX-M-15, NDM-1
  Meropenem MIC alone (M): Z (MIC of greater than 10 μg/mL)
KP1172 Klebsiella pneumoniae SHV-31(2be), DHA-1, VIM-1
  Meropenem MIC alone (M): Z (MIC of greater than 10 μg/mL)
KP1173 Klebsiella pneumoniae TEM-33(2br), CTX-M-15, IMP-1
  Meropenem MIC alone (M): Y (MIC of 1 μg/mL to 10 μg/mL)
KP1174 Klebsiella pneumoniae CTX-M-14, IMP-1
  Meropenem MIC alone (M): Y (MIC of 1 μg/mL to 10 μg/mL)
KP1175 Klebsiella pneumoniae SHV-OSBL(2b), VIM-1
  Meropenem MIC alone (M): Z (MIC of greater than 10 μg/mL)
KP1176 Klebsiella pneumoniae SHV-12(2be), TEM-OSBL(2b), CMY-13, KPC-2, VIM-1
  Meropenem MIC alone (M): Z (MIC of greater than 10 μg/mL)
KP1177 Klebsiella pneumoniae SHV-OSBL(2b), TEM-OSBL(2b), CTX-M-15, NDM-1
  Meropenem MIC alone (M): Z (MIC of greater than 10 μg/mL)
KP1178 Klebsiella pneumoniae SHV-OSBL(2b), TEM-OSBL(2b), CTX-M-15, NDM-1
  Meropenem MIC alone (M): Z (MIC of greater than 10 μg/mL)
KP1179 Klebsiella pneumoniae SHV-12(2be), TEM-OSBL(2b), CTX-M-15, NDM-7
  Meropenem MIC alone (M): Z (MIC of greater than 10 μg/mL)
KP1180 Klebsiella pneumoniae SHV-OSBL(2b), TEM-OSBL(2b), CTX-M-15, DHA-1, IMP-26
  Meropenem MIC alone (M): Y (MIC of 1 μg/mL to 10 μg/mL)
KP1181 Klebsiella pneumoniae SHV-OSBL(2b), CTX-M-15, IMP-26
  Meropenem MIC alone (M): Z (MIC of greater than 10 μg/mL)
